Measurements published in patent US9636286B2, “Antimicrobial cleanser” (Coloplast A/S, priority 2013, dated 2017).

Key:
[1] = test system: reconstructed human epidermis (RhE) model; design: unit not given beside the values; conditions: known irritants and non-irritants given as examples of the scale; cited from earlier work
[2] = test system: reconstructed human epidermis (RhE) model; experiment: In vitro irritancy, EpiDerm MTT ET50 Protocol (EPI-200), Example 1; assay type: cell-based
Description: In vitro irritancy was tested using a commercially available kit “EpiDerm MTT ET50 Protocol (EPI-200)”, available from MatTek Corporation (Ashland, Mass.). The test kit is used as a validated replacement for in vivo irritation testing otherwise known as “Draize testing”, in the EU (OECD TG439). Our method of data analysis and outcome prediction is altered slightly to determine relative differences in irritation potential between experimental neat materials tested within the same kit.
The test consists of a topical exposure of the neat experimental material to a reconstructed human epidermis (RhE) model followed by a cell viability assay. The cell viability test method is based on the enzymatic conversion of mitochondrial dehydrogenase with MTT [(3-4,5-dimethyl thiazole-2-yl) 2,5-diphenyltetrazolium bromide], resulting in a blue formazan salt, which is than extracted from the tissues and quantitated. […]
EpiDerm tissues are conditioned overnight at 37±2° C., 5% CO2, to relieve stress from the shipping process. […] After the three hour incubation in MTT, the formazan salt is extracted using 2.0 mL of isopropanol and the optical density (OD) of each sample is measured at 570 nm. Relative cell viability is calculated as a % of the mean of the negative control tissue. Dose-response curves are constructed for each sample and an ET50 value is calculated. […]

O=[N+]([O-])O [Nitric Acid]
ET50 (Irritancy Scale, example substances) [1]: <0.5

Triton X-100 [1.0% Triton X-100]
ET50 (Irritancy Scale, example substances) [1]: 4-12
Expected In vivo Irritancy Score ([2]; from ET50 by Irritancy Scale): very mild (12-24)
ET50 Value ([2]; neat material, exposure 1, 4 or 24 hrs, time to reduce cell viability to 50%): 12.69 h

CCCCCCCCCCCCOS(=O)(=O)[O-].[Na+] [1% SDS, SDS]
ET50 (Irritancy Scale, example substances) [1]: 0.5-4
